Measurements: patent US12103919B2, “3-(5-oxy)-1-oxoisoindolin-2-yl)piperidine-2,6-dione derivatives and uses thereof” (NOVARTIS AG, priority 2021, dated 2024)

System: Fetal Hemoglobin (HbF)
Assay: Small molecule HbF induction assay in erythroid-differentiated mPB CD34+ cells (flow cytometry)
Assay type: cell-based, human
Conditions: highest percentage of cells staining positive for HbF (% HbF+ cells) in fitted dose-response curve; DMSO baseline approximately 30-40%
Procedure: Cryopreserved primary human CD34^+ hematopoietic stem and progenitor cells were obtained from AllCeIIs, LLC. The CD34^+ cells were isolated from the peripheral blood of healthy donors after mobilization by administration of granulocyte colony-stimulating factor. Cells were differentiated ex vivo toward the erythroid lineage using a 2-phase culture method. In the first phase, cells were cultured in Stemspan™ Serum-Free Expansion Media (SFEM) ([…] Technologies Inc.) supplemented with rhSCF (50 ng/mL, Peprotech®, Inc.), rhlL-6 (50 ng/mL, Peprotech®, Inc.), rhlL-3 (50 ng/mL, Peprotech®, Inc.), and rhFlt3L (50 ng/mL, Peprotech®, Inc.), and 1× antibiotic-antimycotic (Life Technologies, Thermo Fisher Scientific) for 6 days at 37° C. with 5% CO2. During the second phase, cells were cultured in erythroid differentiation media at 5,000 cells/mL in the presence of compound for 7 days at 37° C. with 5% […]. Erythroid Differentiation Media is comprised of IMDM (Life Technologies) supplemented with insulin (10 μg/mL. Sigma Aldrich), heparin (2 U/mL Sigma Aldrich), holo-transferrin (330 μg/mL, Sigma Aldrich), human serum AB (5%, Sigma Aldrich), hydrocortisone (1 μM, […] Technologies), rhSCF (100 ng/mL, Peprotech®, Inc.), rhIL-3 (5 ng/mL. Peprotech®, Inc.), rhEPO (3 U/mL, Peprotech®, Inc.), and 1× antibiotic-antimycotic. All compounds were dissolved and diluted into dimethylsulfoxide (DMSO) and were added to culture media for a final concentration of 0.3% DMSO for testing in a 10-point, 1:3 dilution series starting at 10 uM.
For viability analysis, samples were washed and resuspended in phosphate-buffered saline (PBS) and stained with LlVE/DEAD™ Fixable Violet Dead Cell Stain Kit (Life Technologies, L34963) for 20 minutes. Cells were then washed again with PBS and resuspended in PBS supplemented with 2% fetal bovine serum (FBS), and 2 mM EDTA to prepare for cell surface marker analysis. […]
mPB CD34+ cells were expanded for 6 days, then erythroid differentiated in the presence of compound for 7 days. Cells were fixed, stained and analyzed by flow cytometry. […]

In the case of CCN1CCC[C@@H](Oc2ccc3c(c2)CN(C2CCC(=O)NC2=O)C3=O)C1 (mixture of isomers) [Example 1, 3-(5-(((R)-1-ethylpiperidin-3-yl)oxy)-1-oxoisoindolin-2-yl)piperidine-2,6-dione], the “HbF Amax” value is reported as 66.5%.
